“Also recorded” adds a separate entry of the source.
How the values were obtained:
hMC3R [1] = biological target: T1, hMC3R (Homo sapiens, UniProt P41968); experiment: Membrane binding assay, 125I-NDP-alpha-MSH competition; conditions: ratio IC50 MC-3R / IC50 MC-4R
T1 construct: expressed in transfected cells; host or cells: CHO- or L-cells or other eukaryotic cells
Procedure: (§1) The membrane binding assay was used to identify competitive inhibitors of ^125I-NDP-alpha-MSH binding to cloned human MCRs expressed in mouse L- or Chinese hamster ovary (CHO)-cells.
(§2) Cell lines expressing melanocortin receptors were grown in T-180 flasks containing selective medium of the composition: 1 L Dulbecco's modified Eagles Medium (DMEM) with 4.5 g L-glucose, 25 mM Hepes, without sodium pyruvate, (Gibco/BRl); 100 ml 10% heat-inactivated fetal bovine serum (Sigma); 10 mL 10,000 unit/mL penicillin & 10,000 μg/mL streptomycin (Gibco/BRl); 10 ml 200 mM L-glutamine (Gibco/BRl); 1 mg/mL geneticin (G418) (Gibco/BRl). The cells were grown at 37° C. with CO2 and humidity control until the desired cell density and cell number was obtained.
(§3) The medium was poured off and 10 mls/T-180 flask of enzyme-free dissociation media (Specialty Media Inc.) was added. The cells were incubated at 37° C. for 10 min or until cells sloughed off when flask was banged against hand.
(§4) The cells were harvested into 200 mL centrifuge tubes and spun at 1000 rpm, 4° C., for 10 min. […]
(§5) The mixture was filtered with Packard Microplate 196 filter apparatus using Packard Unifilter 96-well GF/C filter with 0.1% polyethyleneimine (Sigma). […] The top was sealed and the radioactivity quantitated in a Packard Topcount Microplate Scintillation counter.

hMC5R [2] = biological target: T2, hMC5R (Homo sapiens, UniProt P33032); experiment: as above; conditions: ratio IC50 MC-5R / IC50 MC-4R
T2 construct: expressed in transfected cells; host or cells: CHO- or L-cells or other eukaryotic cells
T2 sequence (P33032 whole entry): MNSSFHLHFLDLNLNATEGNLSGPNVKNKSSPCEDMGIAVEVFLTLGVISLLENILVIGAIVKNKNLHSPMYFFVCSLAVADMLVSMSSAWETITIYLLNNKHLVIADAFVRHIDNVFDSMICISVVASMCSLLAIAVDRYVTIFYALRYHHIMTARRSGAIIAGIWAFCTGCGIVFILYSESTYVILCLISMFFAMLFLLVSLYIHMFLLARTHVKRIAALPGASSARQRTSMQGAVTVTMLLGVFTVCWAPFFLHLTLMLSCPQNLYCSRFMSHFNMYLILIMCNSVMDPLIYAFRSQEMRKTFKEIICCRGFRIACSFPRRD
Procedure: as §1, §2, §3, §4, §5

hMC1bR = hMC1bR (Homo sapiens, UniProt Q01726); experiment: cAMP functional assay (agonist); format: cell-based; conditions: selective functional activity
Chain of hMC1bR (Q01726 whole entry): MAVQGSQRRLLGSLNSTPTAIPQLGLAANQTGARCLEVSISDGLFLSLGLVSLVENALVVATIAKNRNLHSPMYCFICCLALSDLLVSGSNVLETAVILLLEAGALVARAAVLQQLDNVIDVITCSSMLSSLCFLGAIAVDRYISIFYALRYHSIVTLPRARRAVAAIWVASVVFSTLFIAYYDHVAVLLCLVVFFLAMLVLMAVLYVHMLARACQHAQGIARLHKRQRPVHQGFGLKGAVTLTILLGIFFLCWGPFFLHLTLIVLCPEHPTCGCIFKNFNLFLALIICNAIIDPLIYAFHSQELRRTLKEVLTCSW
Procedure: (§6) Cells (for example, CHO- or L-cells or other eukaryotic cells) expressing a human melanocortin receptor (see e.g. Yang-Y K; Ollmann-M M; Wilson-B D; Dickinson-C; Yamada-T; Barsh-G S; Gantz-I; Mol-Endocrinol. 1997 March; 11(3): 274-80) were dissociated from tissue culture flasks by rinsing with Ca and Mg free phosphate buffered saline (14190-136, Life Technologies, Gaithersburg, Md.) and detached following 5 min incubation at 37° C. with enzyme free dissociation buffer (S-0,4-B, Specialty Media, Lavellette, N.J.). Cells were collected by centrifugation and resuspended in Earle's Balanced Salt Solution (14015-069, Life Technologies, Gaithersburg, Md.) with additions of 10 mM HEPES pH 7.5, 5 mM MgCl2, 1 mM glutamine and 1 mg/ml bovine serum albumin. Cells were counted and diluted to 1 to 5×10^6/mL. The phosphodiesterase inhibitor 3-isobutyl-1-methylxanthine was added to cells to 0.6 mM.
(§7) Agonist Assay: Test compounds were diluted in dimethylsulfoxide (DMSO) (10^−5 to 10^−10 M) and 0.1 volume of compound solution was added to 0.9 volumes of cell suspension; the final DMSO concentration was […]. After room temperature incubation for 45 min, cells were lysed by incubation at 100° C. for 5 min to release accumulated cAMP.
(§8) cAMP was measured in an aliquot of the cell lysate with the Amersham (Arlington Heights, Ill.) cAMP detection assay (RPA556). The amount of cAMP production which resulted from an unknown compound was compared to that amount of cAMP produced in response to alpha-MSH which was defined as a 100% agonist. The EC50 is defined as the compound concentration which results in half maximal stimulation, when compared to its own maximal level of stimulation.

hMC2R = biological target: T3, hMC2R (Homo sapiens, UniProt Q01718); experiment: cAMP functional assay (agonist); format: cell-based
T3 construct: expressed in transfected cells; host or cells: CHO- or L-cells or other eukaryotic cells
T3 sequence (Q01718 whole entry): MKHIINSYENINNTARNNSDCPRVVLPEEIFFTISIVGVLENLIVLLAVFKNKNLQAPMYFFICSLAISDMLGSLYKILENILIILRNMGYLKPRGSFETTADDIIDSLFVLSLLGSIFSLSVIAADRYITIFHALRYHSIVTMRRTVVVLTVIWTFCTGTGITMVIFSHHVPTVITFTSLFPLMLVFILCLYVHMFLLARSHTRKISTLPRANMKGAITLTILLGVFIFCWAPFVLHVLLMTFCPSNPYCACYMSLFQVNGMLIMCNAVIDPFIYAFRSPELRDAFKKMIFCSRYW
Procedure: as §6, §7, §8

hMC3R [3] = biological target: T1, hMC3R; experiment: cAMP functional assay (agonist); format: cell-based
Procedure: as §6, §7, §8

hMC5R [4] = biological target: T2, hMC5R; experiment: cAMP functional assay (agonist); format: cell-based
Procedure: as §6, §7, §8

Male Wistar rats = experiment: Maintenance operant nicotine self-administration; format: in vivo, rat
Procedure: Animals: Male Wistar rats were used in all experiments. Body weight was 180-200 g at the start of the experiments. Rats were housed 2-3 per cage with food and water available ad libitum. Lights were on a 12-hour light/dark cycle, with lights on at 0600. All procedures met the guidelines of the National Institutes of Health Guide for the Care and Use of Laboratory Animals.
Operant Nicotine Self-Administration: Nicotine (Sigma Chemical Co., St. Louis, Mo.) was added to saline to achieve a concentration of 0.03 mg/ml. Standard operant chambers (Med Associates, VT) housed in sound-attenuated chambers were used for nicotine self-administration. Syringe pumps delivered nicotine via tygon tubing. The two retractable levers were located 12 cm apart and 4 cm above the floor. Fluid delivery and recording of operant responding were controlled by microcomputer. Rats were trained on a […] fixed-ratio 4 (FR4) schedule to self-administer nicotine (0.03 mg/ml, 0.1 ml per delivery) in 60 minute sessions. Once reliable levels of nicotine-reinforced self-administration were achieved, the effect of Compound A (0, and 20 mg/kg) on maintenance levels of responding was investigated.

[5] = selective functional activity, 45 min

T1 sequence (P41968 whole entry): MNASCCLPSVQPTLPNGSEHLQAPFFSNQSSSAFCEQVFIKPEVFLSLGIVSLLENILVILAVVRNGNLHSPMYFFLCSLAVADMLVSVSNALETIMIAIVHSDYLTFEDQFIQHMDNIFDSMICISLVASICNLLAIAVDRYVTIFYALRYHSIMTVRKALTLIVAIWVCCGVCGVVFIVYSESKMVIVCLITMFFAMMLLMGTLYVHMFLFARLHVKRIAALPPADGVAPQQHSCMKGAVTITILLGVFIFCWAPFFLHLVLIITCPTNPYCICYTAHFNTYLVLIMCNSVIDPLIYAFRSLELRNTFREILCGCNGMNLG

CC[C@H](NC(C)=O)c1cc(Cl)ccc1C1CCN(C(=O)[C@@H]2CN(C(C)(C)C)C[C@H]2c2ccc(F)cc2F)CC1 [Compound A]
Selectivity Binding IC50 3R/4R (hMC3R [1]): 163.6 | Selectivity Binding IC50 5R/4R (hMC5R [2]): 36.36 | EC50 for melanocortin 4 receptor lower than for melanocortin 1 receptor (hMC1bR): at least 120 fold | Selectivity cAMP EC50 2R/4R (hMC2R; ratio EC50 MC-2R / EC50 MC-4R): >714.2 | EC50 for melanocortin 4 receptor lower than for melanocortin 2 receptor (hMC2R; [5]): at least 700 fold | Selectivity cAMP EC50 3R/4R (hMC3R [3]; ratio EC50 MC-3R / EC50 MC-4R): 65.71 | EC50 for melanocortin 4 receptor lower than for melanocortin 3 receptor (hMC3R [3]; [5]): at least 65 fold | Selectivity cAMP EC50 5R/4R (hMC5R [4]; ratio EC50 MC-5R / EC50 MC-4R): 100 | EC50 for melanocortin 4 receptor lower than for melanocortin 5 receptor (hMC5R [4]; [5]): at least 100 fold | effect on maintenance levels of nicotine self-administration (nicotine infusions) (Male Wistar rats; 20 mg/kg po prior to testing, 60 minute session, vs baseline (p=0.0001)): significant reductions from baseline levels; also recorded: significant reduction | response rates on the alternate (non-drug reinforced) lever (Male Wistar rats; Wistar rats, any dose tested (0, 20 mg/kg)): not significantly altered; also recorded: no significant effects | reduction of nicotine self administration (Male Wistar rats; Wistar rats, pre-treatment, maintenance period of regular nicotine use): approximately 85%

From patent US20080021067A1, “Methods For The Treatment Of Substance Abuse And Addiction” (priority 2004, published 2008)
